Source: US10064417B2, “Milk filtration devices and methods for filtering” (Janssen Pharmaceutica NV, priority 2015, dated 2018)
Read-outs that look alike come from different tables or passages of the source.

Columns and labels:
[1] = cited from earlier work
orosomucoid = conditions: human blood; cited from earlier work
[2] = cited from earlier work; remark: listed apart in the source
[3] = cited from earlier work; remark: listed apart in the source
[4] = Fraction of ketamine in the neutral state at various pHs; format: physicochemical; conditions: mother's milk, pH about 7.2-7.4, estimated from Table I
[5] = cited from earlier work; remark: listed apart in the source

## NCCCC[C@H](N)C(=O)O [Lysine]
[1]
  Log P: −3.2

## N=C(N)NCCC[C@H](N)C(=O)O [Arginine]
[1]
  Log P: −1.7

## Cc1ncc(C[n+]2csc(CCO)c2C)c(N)n1 [Thiamine]
[1]
  Log P: −3.1
[1]; listed as thiamine
  Log P: ~−3

## CN[C@H]1CC[C@@H](c2ccc(Cl)c(Cl)c2)c2ccccc21 [Sertraline]
orosomucoid
  bound to orosomucoid: 95%
[1]
  Log P: 5.10
[2]
  bound in mother's milk: about 80%

## Cc1ncc(CO)c(CO)c1O [Pyridoxine]
[3]
  pKa: 8.7

## N[C@@H](Cc1c[nH]cn1)C(=O)O [Histidine]
[3]
  pKa: 9.1

## NCCS(=O)(=O)O [Taurine]
[3]
  pKa: 9.0
[3]; room temperature
  pKa: about 9
[1]
  Log P: −1.9

## CNC1(c2ccccc2Cl)CCCCC1=O (stereo not shown) [Ketamine]
[4]
  neutral fraction of ketamine in milk: 30-40%
[5]; pH 7.1
  Fraction of neutral ketamine: 28.0%
[5]; pH 7.4
  Fraction of neutral ketamine: 44.3%
[5]; pH 7.5
  Fraction of neutral ketamine: 50.0%

## O=C(O)[C@@H]1CCCN1 [Proline]
[1]
  Log P: −2.6

## CNCCC(Oc1ccc(C(F)(F)F)cc1)c1ccccc1 (stereo not shown) [fluoxetine, reference compound]
[3]; room temperature
  pKa: about 10.3

## Cc1cc2nc3c(=O)[nH]c(=O)nc-3n(C[C@H](O)[C@H](O)[C@H](O)CO)c2cc1C [Riboflavin]
[1]
  Log P: −0.92
